Several values for one entry are separate records, joined by “and”; a condition that tells them apart may be missing. Equal values may be shown once.
How the values were obtained:
[1] = system: FACS-sorted ALDH+ SKOv3 cells; test: Intraperitoneal ALDH+ SKOv3 survival study
CaoV3 cells = test: Minimal residual disease model, CaoV3 subcutaneous; settings: 3 weeks treatment, 6 months follow-up
[2] = system: chemotherapy-resistant SKOv3 cells; test: Cellular recovery assay with cisplatin; format: cell-based; settings: for cellular recovery: SKOv3, 9 days after treatment, single agent
SKOv3 cells = format: in vivo, mice
PEO1 cells = test: ALDEFLUOR assay of ALDH activity in live PEO1 cells; format: cell-based
[3] = system: CD133+ cells (A2780, OVSAHO, OvCAR5); test: Depletion of CD133+ CSC by FACS 72 h after treatment; format: cell-based
[4] = system: endometrioid ovarian cancer
[5] = system: Ovsaho, HEY-1, and A2780 cell-line xenografts; test: Cell-line xenografts, single agent
[6] = system: non-malignant MCF10A cells; test: Toxicity to normal cells; format: cell-based
[7] = system: other ALDH family members; test: ALDH enzymatic activity, in vitro inhibition; format: biochemical; settings: in vitro enzymatic assay
[8] = system: OVCAR5-ALDH1A3-knockout (KO) cells; test: 673 dose-response in CRISPR knockout cells; format: cell-based
[9] = system: FACS-sorted CD133+ (A2780) cells; test: Annexin-V/PI FACS analysis of apoptosis; format: cell-based; settings: 12.5 μM
platinum-resistant PDX = test: Chemotherapy-resistant patient-derived xenograft; format: in vivo, mice; settings: 673A added to carboplatin or cisplatin
ALDH1A2 = ALDH1A2 (Homo sapiens, UniProt O94788); test: ALDH enzymatic activity, in vitro inhibition; format: biochemical; settings: IC50 ALDH1A2, in vitro enzymatic assay, propionaldehyde/NAD+
splenocytes = test: ALDEFLUOR activity in splenocytes of treated animals; format: in vivo, mice; settings: animals being treated with 673A
[10] = system: bulk cells, multiple cell lines; test: Bulk cell viability in multiple cell lines; format: cell-based
ALDH1A3 = ALDH1A3 (Homo sapiens, UniProt P47895); test: ALDH enzymatic activity, in vitro inhibition; format: biochemical; settings: IC50 ALDH1A3, in vitro enzymatic assay, propionaldehyde/NAD+
[11] = Hematologic, renal, and liver function tests; format: in vivo; settings: liver function tests, 673A added to cisplatin
[12] = system: primary patient cells (HGS); test: Tumor sphere growth assay; format: cell-based, human; settings: single 12.5 μM dose
[13] = biological target: ALDH1A1 Cys303 in SKOv3 tumors (Homo sapiens, UniProt P00352); test: isoTOP-ABPP of ALDH1A in tumors in vivo; parameters: species or system mice; settings: 673A-treated tumors
ALDH2 = ALDH2 (Homo sapiens, UniProt P05091); test: biochemical
CD133+ cells = test: Intracellular calcium level; format: cell-based
[14] = system: primary cells from HGSC patients; test: Seahorse mitochondrial flux analysis; format: cell-based, human; settings: 12.5 μM
[15] = system: human mesenchymal stem cells; test: Toxicity to normal cells; format: cell-based
[16] = system: FACS-isolated ALDH+CD133+ A2780 cells; test: Single-cell microfluidic culture cell death; format: cell-based; settings: microfluidic chips, 72 h
ALDH1A1 = ALDH1A1 (Homo sapiens, UniProt P00352); test: ALDH enzymatic activity, in vitro inhibition; format: biochemical; settings: IC50 ALDH1A1, in vitro enzymatic assay, propionaldehyde/NAD+
Chain of ALDH1A1 (P00352 whole entry): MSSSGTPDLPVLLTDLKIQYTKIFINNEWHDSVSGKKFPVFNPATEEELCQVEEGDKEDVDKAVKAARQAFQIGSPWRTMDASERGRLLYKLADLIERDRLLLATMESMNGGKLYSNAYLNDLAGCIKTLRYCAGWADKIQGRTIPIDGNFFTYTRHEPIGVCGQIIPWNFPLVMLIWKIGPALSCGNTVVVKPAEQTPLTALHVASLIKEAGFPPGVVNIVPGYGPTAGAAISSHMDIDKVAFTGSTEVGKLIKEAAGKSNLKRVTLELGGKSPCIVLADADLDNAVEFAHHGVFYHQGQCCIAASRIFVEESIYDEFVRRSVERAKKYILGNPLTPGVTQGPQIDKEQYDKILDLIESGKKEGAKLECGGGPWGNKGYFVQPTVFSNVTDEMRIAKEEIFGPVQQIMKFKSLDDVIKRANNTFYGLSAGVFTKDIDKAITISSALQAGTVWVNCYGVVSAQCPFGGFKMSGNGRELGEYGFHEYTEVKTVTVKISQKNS

Chain of ALDH2 (P05091 18-517): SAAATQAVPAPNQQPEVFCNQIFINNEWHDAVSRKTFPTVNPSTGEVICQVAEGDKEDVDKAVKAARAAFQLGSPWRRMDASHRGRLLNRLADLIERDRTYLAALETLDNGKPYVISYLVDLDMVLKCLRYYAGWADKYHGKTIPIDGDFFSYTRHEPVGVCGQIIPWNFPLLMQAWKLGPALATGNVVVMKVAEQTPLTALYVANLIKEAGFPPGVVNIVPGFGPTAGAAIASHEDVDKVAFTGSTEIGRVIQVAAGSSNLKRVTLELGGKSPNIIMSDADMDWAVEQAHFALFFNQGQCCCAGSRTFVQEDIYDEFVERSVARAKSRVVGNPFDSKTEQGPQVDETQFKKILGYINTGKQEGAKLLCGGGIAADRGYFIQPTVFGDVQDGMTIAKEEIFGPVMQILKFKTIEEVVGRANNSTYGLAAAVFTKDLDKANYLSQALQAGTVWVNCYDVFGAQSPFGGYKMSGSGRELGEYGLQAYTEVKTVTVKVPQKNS
Chain of ALDH1A2 (O94788 whole entry): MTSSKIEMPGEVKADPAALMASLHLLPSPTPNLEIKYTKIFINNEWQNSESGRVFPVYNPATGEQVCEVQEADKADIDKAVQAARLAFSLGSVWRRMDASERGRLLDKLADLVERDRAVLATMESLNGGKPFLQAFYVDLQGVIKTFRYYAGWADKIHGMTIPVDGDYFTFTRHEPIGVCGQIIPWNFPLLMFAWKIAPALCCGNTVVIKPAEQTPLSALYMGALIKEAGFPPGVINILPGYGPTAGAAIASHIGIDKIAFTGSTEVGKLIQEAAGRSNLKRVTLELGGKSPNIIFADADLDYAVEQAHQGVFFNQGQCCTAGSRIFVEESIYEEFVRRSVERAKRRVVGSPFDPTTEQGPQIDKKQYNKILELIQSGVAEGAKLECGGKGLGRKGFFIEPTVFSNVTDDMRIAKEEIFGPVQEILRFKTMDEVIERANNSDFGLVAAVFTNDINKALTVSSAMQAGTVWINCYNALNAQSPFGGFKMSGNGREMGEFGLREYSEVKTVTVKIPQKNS
Chain of ALDH1A3 (P47895 whole entry): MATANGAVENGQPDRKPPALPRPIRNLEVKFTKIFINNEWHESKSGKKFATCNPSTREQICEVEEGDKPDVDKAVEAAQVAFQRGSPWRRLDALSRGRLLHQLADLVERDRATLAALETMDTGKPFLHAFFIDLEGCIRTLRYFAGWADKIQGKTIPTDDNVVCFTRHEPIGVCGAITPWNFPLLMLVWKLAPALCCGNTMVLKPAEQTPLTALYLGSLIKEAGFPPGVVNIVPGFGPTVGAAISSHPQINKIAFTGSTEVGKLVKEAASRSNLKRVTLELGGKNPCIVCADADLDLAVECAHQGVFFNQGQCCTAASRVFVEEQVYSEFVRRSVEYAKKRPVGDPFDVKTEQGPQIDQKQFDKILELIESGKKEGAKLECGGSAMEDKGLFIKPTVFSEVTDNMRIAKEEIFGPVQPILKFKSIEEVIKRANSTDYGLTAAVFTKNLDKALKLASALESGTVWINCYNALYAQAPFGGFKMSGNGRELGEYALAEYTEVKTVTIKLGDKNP
Chain of ALDH1A1 Cys303 in SKOv3 tumors (P00352 whole entry): as the sequence (P00352 whole entry) above

## N.N.[Cl][Pt][Cl] [cisplatin, reference compound]
[1]; cisplatin only
  mice that died: 100%
CaoV3 cells; single agent
  mice that developed tumors: Ninety
[2]
  cellular recovery: 100%

## CCN(CC)C(=S)SSC(=S)N(CC)CC [DSF, disulfiram, reference compound]
SKOv3 cells; SKOv3 treated in vitro, 5,000 live cells injected
  effect on cancer growth: no effect on cancer growth

## CCN(CC)c1ccc(C=O)cc1 [DEAB, N,N-diethylaminobenzaldehyde, reference compound]
PEO1 cells; PEO1 cells, 6 h, equimolar doses (25 μM)
  inhibition of ALDEFLUOR activity: 40%
[3]
  depletion of CD133+ CSCs / toxicity: preferential depletion of CD133^+ cells

## O=c1c(-c2ccc(O)cc2)coc2cc(O[C@@H]3O[C@H](CO)[C@@H](O)[C@H](O)[C@H]3O)ccc12 [daidzin, reference compound]
[3]
  depletion of CD133+ CSCs / toxicity: no significant toxicity
[2]; SKOv3, added to cisplatin
  therapeutic benefit of addition to cisplatin: No therapeutic benefit

## O=Cc1ccc(N2Cc3ccccc3C2)cc1 [673A, 4-(1,3-dihydro-2H-isoindol-2-yl)benzaldehyde]
[4]; carboplatin weekly and 673A 20 mg/kg daily for 7 weeks
  mice tumor free at conclusion of experiment: 27%
SKOv3 cells; 673A combined with cisplatin therapy
  tumor initiation capacity: eliminated tumor initiation capacity
SKOv3 cells; SKOv3 treated in vitro 12.5 μM, 48 h, 5,000 live cells injected
  reduction in tumor growth versus no treatment or cisplatin therapy: 4–5 fold
SKOv3 cells; limiting dilution assay, 673A alone
  reduction of tumor initiation: ~ 50%
[5]; 20 mg/kg daily for 21 days
  reduction of tumor burden: 40%–60%
[5]; in vivo, single agent
  reduction of tumor growth as a single agent: > 50%
[1]; cisplatin and 673A
  mice disease free at 6 months: 62%
[6]
  toxicity to non-malignant MCF10A cells: little or no toxicity
[7]
  inhibition of other ALDH family members tested: minimal or no inhibition
[8]
  increase in TD50 versus control cells: ~ 10 ×
CaoV3 cells; cisplatin and 673A
  mice that developed tumors: 40%
CaoV3 cells; single agent
  mice that developed tumors: 50%
[9]
  induction of annexin-V: no significant early or late induction of annexin-V
platinum-resistant PDX
  reduction of final tumor weight: more than 2 fold
ALDH1A2
  IC50: 0.23 µM and < 0.35 µM
PEO1 cells; Homo sapiens, PEO1, 6 h, read-out: inhibition of ALDEFLUOR activity
  inhibition at 25 µM: 98%
PEO1 cells; PEO1 cells, persisted after 6 h
  time to inhibition of PEO1 ALDEFLUOR activity: ≤ 1 h
splenocytes
  decrease of ALDEFLUOR activity in splenocytes: 3 fold
[10]
  TD50 bulk cell viability: 40 to 80 µM
ALDH1A3
  IC50: 0.348 µM and < 0.35 µM
[11]
  toxicity with addition to cisplatin: no additional toxicity
[12]
  average reduction in tumor sphere formation: 19 fold
[13]
  engagement of ALDH1A1 catalytic residue: clear protection of the catalytic residue Cys303 in ALDH1A1
ALDH2
  IC50: 14 µM and ~15 µM
CD133+ cells; 16 h after treatment
  increase in intracellular Ca: 1.5 fold
CD133+ cells; 24 h after treatment
  increase in intracellular Ca: 6 fold
[14]
  OXPHOS capacity: decreased OXPHOS capacity
[15]
  toxicity to human mesenchymal stem cells: little or no toxicity
[16]
  treated cells that died: > 90%
[3]
  depletion of CD133+ CSCs / toxicity: highly effective at preferentially depleting CD133^+ CSC
ALDH1A1
  IC50: 0.246 µM and < 0.35 µM
[2]; SKOv3, 9 days after combined treatment of cisplatin and 673A
  reduction in cell number: 30 fold
[2]
  cellular recovery: 100%

## N.N.O=C([O-])C1(C(=O)[O-])CCC1.[Pt+2] [carboplatin, reference compound]
[4]; carboplatin alone, 25 mg/kg weekly
  mice tumor free after therapy: 16%

— article PMC7061440 (Cell reports, 2019)
